Data as given in ChEMBL document CHEMBL1649500, “GS-9191 is a novel topical prodrug of the nucleotide analog 9-(2-phosphonylmethoxyethyl)guanine with antiproliferative activity and possible utility in the treatment of human papillomavirus lesions” (Antimicrob Agents Chemother, 2009).
Calls of active or inactive are those of the source. The rule behind the calls is not given here.

Columns and labels:
SiHa [1] = assay: Inhibition of DNA synthesis in HPV-transformed human SiHa cells assessed as decrease in BrdU incorporation after 24 to 27 hrs by ELISA; format: functional, cell-based
[2] = Antiproliferative activity against NHBE cells after 7 days by SRB assay; format: cell-based; conditions: Homo sapiens, 168 h
HT-3 = assay: Antiproliferative activity against HPV-non-transformed human HT3 cells after 7 days by SRB assay; format: functional, cell-based; conditions: HT-3, 168 h
SiHa [3] = assay: Inhibition of DNA synthesis in HPV-transformed human SiHa cells assessed as decrease in BrdU incorporation after 48 to 51 hrs by ELISA; format: functional, cell-based
SiHa [4] = assay: Induction of apoptosis in HPV-transformed human SiHa cells assessed as viable cells at 27 nM after 3 days by propidium iodide staining-based flow cytometry; format: functional; conditions: 72 h, read-out: Activity
SiHa [5] = assay: Inhibition of DNA synthesis in HPV-transformed human SiHa cells assessed as decrease in BrdU incorporation after 3 hrs by ELISA; format: functional, cell-based
SiHa [6] = assay: Drug metabolism in human SiHa cells assessed as PMEG AUC (0 to 32 hrs) at 1 uM by HPLC analysis; format: ADME, cell-based; set-up: dose 1 uM, time < 32 hr
[7] = Drug metabolism in human CK cells assessed as PMEG AUC (0 to 32 hrs) at 1 uM by HPLC analysis; format: ADME, cell-based; set-up: time < 32 hr, dose 1 uM
SiHa [8] = assay: Induction of apoptosis in HPV-transformed human SiHa cells assessed as apoptotic cells at 27 nM after 7 days by propidium iodide staining-based flow cytometry; format: functional
[9] = Antiproliferative activity against HPV-transformed human C4I cells after 7 days by SRB assay; format: functional, cell-based; conditions: C-4I, 168 h
SiHa [10] = assay: Induction of apoptosis in HPV-transformed human SiHa cells assessed as viable cells at 2.7 nM after 3 days by propidium iodide staining-based flow cytometry; format: functional; conditions: 72 h, read-out: Activity
[11] = Antiproliferative activity against PHF after 7 days by SRB assay; set-up: species or system Homo sapiens
A-431 = assay: Cell cycle arrest in human A431 cells assessed as accumulation at S phase at 10 times EC50 after 48 hrs by flow cytometry; format: functional, cell-based
SiHa [12] = assay: Inhibition of DNA synthesis in HPV-transformed human SiHa cells assessed as decrease in BrdU incorporation after 6 to 9 hrs by ELISA; format: functional, cell-based
SiHa [13] = assay: Antiproliferative activity against HPV-transformed human SiHa cells after 7 days by SRB assay; format: functional, cell-based; conditions: 168 h
[14] = Antiproliferative activity against human CK after 7 days by SRB assay
HeLa [15] = assay: Induction of apoptosis in HPV-transformed human HeLa cells at 2.7 to 270 nM after 3 to 7 days by propidium iodide staining-based flow cytometry; format: functional, cell-based
Ca-Ski [16] = assay: Antiproliferative activity against HPV-transformed human CaSki cells after 7 days by SRB assay; format: functional, cell-based; conditions: 168 h
[17] = Cell cycle arrest in human PHK cells assessed as accumulation at G0/G1 phase at 10 times EC50 after 48 hrs by flow cytometry; format: cell-based
Ca-Ski [18] = assay: Cell cycle arrest in HPV-transformed human CaSki cells assessed as accumulation at S phase at 10 times EC50 after 48 hrs by flow cytometry; format: functional, cell-based
SiHa [19] = assay: Cell cycle arrest in HPV-transformed human SiHa cells assessed as accumulation at G2/M phase at 10 times EC50 after 48 hrs by flow cytometry; format: functional
SiHa [20] = assay: Induction of apoptosis in HPV-transformed human SiHa cells assessed as apoptotic cells at 27 nM after 3 days by propidium iodide staining-based flow cytometry; format: functional
[21] = Antiproliferative activity against human lung fibroblast after 7 days by SRB assay; conditions: 168 h
SiHa [22] = assay: Induction of apoptosis in HPV-transformed human SiHa cells assessed as viable cells at 270 nM after 7 days by propidium iodide staining-based flow cytometry; format: functional; conditions: 168 h, read-out: Activity
ME-180 = assay: Antiproliferative activity against HPV-transformed human ME180 cells after 7 days by SRB assay; format: functional, cell-based; conditions: ME-180, 168 h
SiHa [23] = assay: Inhibition of DNA synthesis in HPV-transformed human SiHa cells assessed as decrease in BrdU incorporation after 3 to 6 hrs by ELISA; format: functional, cell-based
SiHa [24] = assay: Inhibition of DNA synthesis in HPV-transformed human SiHa cells assessed as decrease in BrdU incorporation after 72 to 75 hrs by ELISA; format: functional, cell-based
SCC-9 = assay: Antiproliferative activity against HPV-non-transformed human SCC9 cells after 7 days by SRB assay; format: functional, cell-based; conditions: SCC-9, 168 h
SiHa [25] = assay: Induction of apoptosis in HPV-transformed human SiHa cells assessed as viable cells at 2.7 nM after 7 days by propidium iodide staining-based flow cytometry; format: functional; conditions: 168 h, read-out: Activity
SiHa [26] = assay: Cell cycle arrest in HPV-transformed human SiHa cells assessed as accumulation at S phase at 10 times EC50 after 48 hrs by flow cytometry; format: functional
[27] = Drug metabolism in human lung fibroblast assessed as cPrPMEDAP AUC (0 to 32 hrs) at 1 uM by HPLC analysis; format: ADME; set-up: dose 1 uM, time < 32 hr
[28] = Drug metabolism in human CaSki cells assessed as PMEG AUC (0 to 32 hrs) at 1 uM by HPLC analysis; format: ADME, cell-based; set-up: time < 32 hr, dose 1 uM; conditions: ca-ski
[29] = test system: Cottontail rabbit papillomavirus; assay: Antiviral activity against Cottontail rabbit papillomavirus infected in New Zealand White rabbit assessed as effect on viral growth rate at 0.5% administered topically measured on day 48; format: functional; conditions: Kappapapillomavirus 2
[30] = Antiproliferative activity against human PHK after 7 days by SRB assay
SiHa [31] = assay: Induction of apoptosis in HPV-transformed human SiHa cells assessed as apoptotic cells at 270 nM after 3 days by propidium iodide staining-based flow cytometry; format: functional
[32] = test system: Cottontail rabbit papillomavirus; assay: Antiviral activity against Cottontail rabbit papillomavirus infected in New Zealand White rabbit assessed as decrease in pailloma size at 0.1% administered topically measured on day 48; format: functional, Kappapapillomavirus 2
SiHa [33] = assay: Induction of apoptosis in HPV-transformed human SiHa cells assessed as apoptotic cells at 270 nM after 7 days by propidium iodide staining-based flow cytometry; format: functional
SiHa [34] = assay: Cell cycle arrest in HPV-transformed human SiHa cells assessed as accumulation at G0/G1 phase at 10 times EC50 after 48 hrs by flow cytometry; format: functional
[35] = test system: Cottontail rabbit papillomavirus; assay: Antiviral activity against Cottontail rabbit papillomavirus infected in New Zealand White rabbit assessed as decrease in pailloma size at 0.01% administered topically measured on day 48; format: functional, Kappapapillomavirus 2
Ca-Ski [36] = assay: Induction of apoptosis in HPV-transformed human CaSki cells at 2.7 to 270 nM after 3 to 7 days by propidium iodide staining-based flow cytometry; format: functional, cell-based
[37] = Antiproliferative activity against HPV-transformed human MS751 cells after 7 days by SRB assay; format: functional, cell-based; conditions: MS751, 168 h
[38] = Cell cycle arrest in human PHK cells assessed as accumulation at S phase at 10 times EC50 after 48 hrs by flow cytometry; format: cell-based
SiHa [39] = assay: Induction of apoptosis in HPV-transformed human SiHa cells assessed as viable cells at 270 nM after 3 days by propidium iodide staining-based flow cytometry; format: functional; conditions: 72 h, read-out: Activity
SiHa [40] = assay: Induction of apoptosis in HPV-transformed human SiHa cells assessed as apoptotic cells at 2.7 nM after 7 days by propidium iodide staining-based flow cytometry; format: functional
[41] = test system: Cottontail rabbit papillomavirus; assay: Antiviral activity against Cottontail rabbit papillomavirus infected in New Zealand White rabbit assessed as decrease in pailloma size at 0.3% administered topically measured on day 48; format: functional, Kappapapillomavirus 2
HeLa [42] = assay: Antiproliferative activity against HPV-transformed human HeLa cells after 7 days by SRB assay; format: functional, cell-based; conditions: 168 h
SiHa [43] = assay: Induction of apoptosis in HPV-transformed human SiHa cells assessed as viable cells at 27 nM after 7 days by propidium iodide staining-based flow cytometry; format: functional; conditions: 168 h, read-out: Activity
[44] = Cell cycle arrest in human PHK cells assessed as accumulation at G2/M phase at 10 times EC50 after 48 hrs by flow cytometry; format: cell-based
SiHa [45] = assay: Induction of apoptosis in HPV-transformed human SiHa cells assessed as apoptotic cells at 2.7 nM after 3 days by propidium iodide staining-based flow cytometry; format: functional
SCC-4 = assay: Antiproliferative activity against HPV-non-transformed human SCC4 cells after 7 days by SRB assay; format: functional, cell-based; conditions: SCC-4, 168 h

CC(C)COC(=O)[C@H](Cc1ccccc1)NP(=O)(COCCn1cnc2c(NC3CC3)nc(N)nc21)N[C@@H](Cc1ccccc1)C(=O)OCC(C)C [GS-9191] showed an EC50 (SiHa [1]) of 1.8 nM, an EC50 [2] of 0.98 nM and an EC50 (HT-3) of 5.42 nM. The EC50 (SiHa [3]) was 7.9 nM, the viability at 0.027 µM (SiHa [4]) was 83.7% and the EC50 (SiHa [5]) was greater than 74 nM. It also gave an AUC (SiHa [6]) of 1960 µM·h, an AUC [7] of 33.4 µM·h and an Activity (SiHa [8]) of 82.2%. It also gave an EC50 [9] of 0.44 nM, a viability at 0.0027 µM (SiHa [10]) of 95.2% and an EC50 [11] of 4.75 nM. For the same compound, the Activity (A-431) was “Active”, the EC50 (SiHa [12]) was 1 nM and the EC50 (SiHa [13]) was 0.03 nM. For the same compound, the EC50 [14] was 2.1 nM, the Activity (HeLa [15]) was “Active” and the EC50 (Ca-Ski [16]) was 2.03 nM. The Activity [17] was 56.4%, the Activity (Ca-Ski [18]) was “Active” and the Activity (SiHa [19]) was 7.3%. It also gave an Activity (SiHa [20]) of 14.6%, an EC50 [21] of 7.44 nM and a viability at 0.27 µM (SiHa [22]) of 15.5%. For the same compound, the EC50 (ME-180) was 1.83 nM, the EC50 (SiHa [23]) was 7.8 nM and the EC50 (SiHa [24]) was 11.5 nM. The EC50 (SCC-9) was 15.3 nM, the viability at 0.0027 µM (SiHa [25]) was 65.5% and the Activity (SiHa [26]) was 65.6%. The AUC [27] was 835 µM·h, the AUC [28] was 170 µM·h and the Activity [29] was “inactive”. For the same compound, the EC50 [30] was 2.91 nM, the Activity (SiHa [31]) was 19.6% and the “inhibition (INH)” value [32] was 70%. The Activity (SiHa [33]) was 84.1%, the Activity (SiHa [34]) was 27.1% and the “inhibition (INH)” value [35] was 53%. The Activity (Ca-Ski [36]) was “Active”, the EC50 [37] was 0.04 nM and the Activity [38] was 36.1%. For the same compound, the viability at 0.27 µM (SiHa [39]) was 79.6%, the Activity (SiHa [40]) was 33.1% and the “inhibition (INH)” value [41] was 70%. For the same compound, the EC50 (HeLa [42]) was 0.71 nM, the viability at 0.027 µM (SiHa [43]) was 17.4% and the Activity [44] was 7.5%. It also gave an Activity (SiHa [45]) of 3.4% and an EC50 (SCC-4) of 5.03 nM.
